Structures are written as SMILES. Bounds are passed on as bounds.

In test [1] the target is T1, Axl (Homo sapiens, UniProt P30530).
T1 sequence (P30530 26-894): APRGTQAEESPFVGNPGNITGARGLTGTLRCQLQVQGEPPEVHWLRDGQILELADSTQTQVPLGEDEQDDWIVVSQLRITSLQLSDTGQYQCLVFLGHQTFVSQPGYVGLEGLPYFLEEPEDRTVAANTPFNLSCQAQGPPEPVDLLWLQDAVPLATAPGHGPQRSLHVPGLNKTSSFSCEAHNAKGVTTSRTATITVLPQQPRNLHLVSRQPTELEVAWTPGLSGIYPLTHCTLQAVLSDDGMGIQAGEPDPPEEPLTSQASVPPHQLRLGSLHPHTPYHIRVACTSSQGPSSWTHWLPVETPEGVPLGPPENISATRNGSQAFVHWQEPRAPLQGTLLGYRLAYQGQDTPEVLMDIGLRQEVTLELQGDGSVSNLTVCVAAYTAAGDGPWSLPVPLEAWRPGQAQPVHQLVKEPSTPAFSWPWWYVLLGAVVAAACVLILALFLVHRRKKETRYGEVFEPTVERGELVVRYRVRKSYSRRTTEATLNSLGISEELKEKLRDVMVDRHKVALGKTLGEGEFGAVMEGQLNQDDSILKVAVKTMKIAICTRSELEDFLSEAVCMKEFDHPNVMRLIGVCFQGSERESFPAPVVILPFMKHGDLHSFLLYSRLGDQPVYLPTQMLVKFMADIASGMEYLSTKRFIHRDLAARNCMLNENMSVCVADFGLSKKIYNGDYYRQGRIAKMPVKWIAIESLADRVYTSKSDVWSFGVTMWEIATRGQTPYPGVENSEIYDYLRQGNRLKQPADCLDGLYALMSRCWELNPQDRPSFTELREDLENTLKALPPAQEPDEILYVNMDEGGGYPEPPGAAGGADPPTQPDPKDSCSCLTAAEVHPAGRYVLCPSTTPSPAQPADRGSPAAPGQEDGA
Put plainly: HTRF KinEASE-TK biochemical potency assay, AXL. Set-up: purchased Invitrogen. The following applies: 5 nM AXL, 700 μM ATP, 800 nM TK Substrate-biotin. The protocol: Purified recombinant human AXL, TYRO3 and MER proteins were purchased from Invitrogen™. 10 nM AXL, 2 nM TYRO3 or MER were incubated with varying concentrations of compounds in 50 mM HEPES, pH 7.4, 10 mM MgCl2, 0.01% BSA, 1 mM DTT and 2% DMSO in a total volume of 20 μl in a 384-well microplate (Corning™ #3640) at RT for 1 h. The AXL, TYRO3 and MER enzymatic reaction was initiated by transferring 10 μl of enzyme and compound mixture into 10 μl of 1.6 μM TK Substrate-biotin (HTRF® KinEASE-TK kit, Cisbio) and 1400 μM ATP pre-incubated in 50 mM HEPES, pH 7.4, 10 mM MgCl2, 0.01% BSA, 1 mM DTT in a 384-well microplate (Corning™ #3640) at RT, giving the final reaction conditions: 5 nM AXL, 1 nM TYRO3 or MER, 800 nM TK Substrate-biotin and 700 μM ATP in 50 mM HEPES, pH 7.4, 10 mM MgCl2, 0.01% BSA, 1 mM DTT and 1% DMSO with varying concentrations of compounds. Following 2 h incubation at RT, the AXL, TYRO3 and MER enzymatic reaction was stopped by transfer of 10 μl of reaction into 10 μl of detection mix (400 nM Streptavidin-XL665, 200-fold dilution TK Antibody-Cryptate and detection buffer, HTRF® KinEASE-TK kit, Cisbio) in a white 384-well microplate (Perkin Elmer, OptiPlate 384). After 1 h incubation at RT, the plate was put into a plate reader (Evision) to read at 665/620 nm (acceptor/donor) for HTRF. The value of the DMSO blank (MIN inhibition=100% activity) was used as a negative control. The positive control was established by adding 5 μl of enzyme and DMSO mixture into 10 μl of detection mix followed by addition of 5 μl of TK Substrate-biotin and ATP mixture (MAX inhibition=0% activity). To calculate the percent activity, Equation 1 was used. Ratio 665/620 is the value at a given compound concentration: […]

In test [2] the target is T1, Axl. As to the kind of experiment: Axl NanoBRET intracellular kinase assay (intracellular binding, Cell Binding). On the set-up: host or cells: HEK-293. The following applies: HEK-293 cells transfected with Axl-NanoLuc fusion vector; 0.35 μM K-5 NanoBRET tracer. The protocol:
Axl NanoBRET™ intracellular kinase assay (Promega, N2540) was performed according to manufacturer's recommendation. In brief, HEK-293 cells are transiently transfected with Axl-NanoLuc fusion vector (Promega, NV1071), utilizing Fugene HD transfection reagent (Promega, E2311) a day before experiment following manufacturer's recommendation.
The day of the assay, the cells were collected and resuspended in Opti-MEM media (ThermoFisher, 31985070) at 2e5 cells/mL concentration. Testing compounds were serial diluted and dispensed into a white 384 well polystyrene plate at 200 nL in 100% DMSO. 40 μL of resuspended cells is then added per well for a final condition of 8K cells/well with 0.5% DMSO. After one-hour compound pre-incubation at 37° C. and 5% CO2, cells were further incubated with 0.35 μM K-5 NanoBRET tracer for two-hours at 37° C. and 5% CO2. […] of 3× substrate plus Inhibitor solution was prepared according to kits manual and added to the cells followed by a 30 second pulse centrifugation spin. The plate was then immediately read utilizing an Envision (Perkin Elmer) plate reader. The BRET signal is measured by taking the ratio of the emissions reading at 610 nm and 450 nm. Compound binding is based on the decrease BRET signal caused by the displacement of the K-5 tracer. […] IC50 value of compounds was determined by 4-parameter non-linear regression fitting of percent activity in GraphPad Prism software.
A general note: Bioluminescence resonance energy transfer reports proximity on the nanometre scale.

Regarding `O=C1CCCN1c1ccc(-c2n[nH]c3ncc(-c4ccc5c(c4)CC[C@@H](N4C6COCC4C6)CC5)cc23)cc1` [Example 122, 1-(4-{5-[(7S)-7-{3-oxa-6-azabicyclo[3.1.1]heptan-6-yl}-6,7,8,9-tetrahydro-5H-benzo[7]annulen-2-yl]-2H-pyrazolo[3,4-b]pyridin-3-yl}phenyl)pyrrolidin-2-one], the IC50 against Axl [1] and on Axl [2] was less than 100 nM in each case.

Regarding `COCCNCc1ccc(-c2n[nH]c3ncc(-c4ccc5c(c4)CCC(C)(N4CCC[C@H]4C)CC5)cc23)cc1` (stereo partly drawn) [Example 108, (2-Methoxyethyl)({[4-(5-{7-methyl-7-[(2R)-2-methylpyrrolidin-1-yl]-6,7,8,9-tetrahydro-5H-benzo[7]annulen-2-yl}-1H-pyrazolo[3,4-b]pyridin-3-yl)phenyl]methyl})amine], the IC50 against Axl [1] is less than 100 nM; on Axl [2] it was 100 to 1000 nM.

Turning to `C[C@@H]1CCCN1[C@H]1CCc2cc(-c3cnc4[nH]nc(-c5ccc(S(=O)(=O)C6CC6)cc5)c4c3)cnc2CC1` [Example 102, (2R)-1-[(7S)-3-{3-[4-(Cyclopropanesulfonyl)phenyl]-1H-pyrazolo[3,4-b]pyridin-5-yl}-5H,6H,7H,8H,9H-cyclohepta[b]pyridin-7-yl]-2-methylpyrrolidine], the IC50 against Axl [1] was 100 to 1000 nM; on Axl [2] it was more than 1000 nM.

On to `C[C@@H]1CCCN1C1(C)CCc2ccc(-c3cnc4[nH]nc(-c5ccc(S(N)(=O)=O)cc5)c4c3)cc2CC1` (stereo partly drawn) [Example 95, 4-(5-(7-Methyl-7-((R)-2-methylpyrrolidin-1-yl)-6,7,8,9-tetrahydro-5H-benzo[7]annulen-2-yl)-1H-pyrazolo[3,4-b]pyridin-3-yl)benzenesulfonamide], for which the IC50 against Axl [1] and at Axl [2] was less than 100 nM throughout.

On to `C[C@@H]1CCCN1C1CCc2ccc(-c3cnc4[nH]nc(-c5ccc(S(=O)(=O)C6CC6)cc5)c4c3)cc2CC1` (stereo partly drawn) [Example 39, 3-(4-(Cyclopropylsulfonyl)phenyl)-5-(7-((R)-2-methylpyrrolidin-1-yl)-6,7,8,9-tetrahydro-5H-benzo[7]annulen-2-yl)-1H-pyrazolo[3,4-b]pyridine], for which the IC50 against Axl [1] and on Axl [2] was less than 100 nM throughout.

For the molecule `C[C@@H]1CCCN1C1(C)CCc2ccc(-c3cnc4[nH]nc(-c5ccc(N6CCOCC6)cc5)c4c3)cc2CC1` (stereo partly drawn) [Example 107, 4-[4-(5-{7-Methyl-7-[(2R)-2-methylpyrrolidin-1-yl]-6,7,8,9-tetrahydro-5H-benzo[7]annulen-2-yl}-1H-pyrazolo[3,4-b]pyridin-3-yl)phenyl]morpholine], the results for the IC50 at Axl [1] and at Axl [2] were less than 100 nM and more than 1000 nM, respectively.

For the molecule `CCC1(N2CCC[C@H]2C)CCc2ccc(-c3cnc4[nH]nc(-c5ccc(S(=O)(=O)C6CC6)cc5)c4c3)cc2CC1` (stereo partly drawn) [Example 6, (2R)-1-(2-{3-[4-(Cyclopropanesulfonyl)phenyl]-1H-pyrazolo[3,4-b]pyridin-5-yl}-7-ethyl-6,7,8,9-tetrahydro-5H-benzo[7]annulen-7-yl)-2-methylpyrrolidine], the figures for the IC50 at Axl [1] and on Axl [2] were less than 100 nM and 100 to 1000 nM, respectively.

On to `CC1(N2CCc3ccc(-c4cnc5[nH]nc(-c6ccc(S(=O)(=O)C7CC7)cc6)c5c4)cc3CC2)CCCC1` [Example 120, 7-{3-[4-(Cyclopropanesulfonyl)phenyl]-1H-pyrazolo[3,4-b]pyridin-5-yl}-3-(1-methylcyclopentyl)-2,3,4,5-tetrahydro-1H-3-benzazepine], for which the values for the IC50 against Axl [1] and on Axl [2] were less than 100 nM and 100 to 1000 nM, respectively.

As for `C[C@@H]1CCCN1C1(C)CCc2ccc(-c3cnc4[nH]nc(-c5ccc(S(=O)(=O)N6CCC6)cc5)c4c3)cc2CC1` (stereo partly drawn) [Example 104, (2R)-1-(2-{3-[4-(Azetidine-1-sulfonyl)phenyl]-1H-pyrazolo[3,4-b]pyridin-5-yl}-7-methyl-6,7,8,9-tetrahydro-5H-benzo[7]annulen-7-yl)-2-methylpyrrolidine], the IC50 at Axl [1] and on Axl [2] was less than 100 nM each time.

Regarding `CC1(N2CCC2)CCc2ccc(-c3cnc4[nH]nc(-c5ccc(S(=O)(=O)C6CC6)cc5)c4c3)cc2CC1` (stereo not drawn) [Example 7, 1-(2-{3-[4-(Cyclopropanesulfonyl)phenyl]-1H-pyrazolo[3,4-b]pyridin-5-yl}-7-methyl-6,7,8,9-tetrahydro-5H-benzo[7]annulen-7-yl)azetidine], the IC50 against Axl [1] and at Axl [2] was less than 100 nM each time.

As to `C[C@@H]1CCCN1C1(C)CCc2ccc(-c3cnc4[nH]nc(-c5ccc(C(C)(C)O)c(Cl)c5)c4c3)cc2CC1` (stereo partly drawn) [Example 57, 2-[2-Chloro-4-(5-{7-methyl-7-[(2R)-2-methylpyrrolidin-1-yl]-6,7,8,9-tetrahydro-5H-benzo[7]annulen-2-yl}-1H-pyrazolo[3,4-b]pyridin-3-yl)phenyl]propan-2-ol], the IC50 against Axl [1] and at Axl [2] was less than 100 nM throughout.

Regarding `Cc1cc(-c2n[nH]c3ncc(-c4ccc5c(c4)CCC(N4CCCC4)CC5)cc23)ccc1C(=O)N1CCNCC1` (stereo not drawn) [Example 47, 1-(2-Methyl-4-{5-[7-(pyrrolidin-1-yl)-6,7,8,9-tetrahydro-5H-benzo[7]annulen-2-yl]-1H-pyrazolo[3,4-b]pyridin-3-yl}benzoyl)piperazine], the IC50 on Axl [1] and at Axl [2] was less than 100 nM throughout.

In the case of `CC(C)(O)c1ccc(-c2n[nH]c3ncc(-c4ccc5c(c4)CCN(C4CCCC4)CC5)cc23)cc1C(F)(F)F` [Example 16, 2-{4-[5-(3-Cyclopentyl-2,3,4,5-tetrahydro-1H-3-benzazepin-7-yl)-1H-pyrazolo[3,4-b]pyridin-3-yl]-2-(trifluoromethyl)phenyl}propan-2-ol], the IC50 against Axl [1] was less than 100 nM; at Axl [2], 100 to 1000 nM.

Consider `COCCN1CCc2ccc(-c3cnc4[nH]nc(-c5ccc(C(C)(C)O)c(Cl)c5)c4c3)cc2CC1` [Example 34, 2-(2-Chloro-4-(5-(3-(2-methoxyethyl)-2,3,4,5-tetrahydro-1H-benzo[d]azepin-7-yl)-1H-pyrazolo[3,4-b]pyridin-3-yl)phenyl)propan-2-ol], for which the results for the IC50 against Axl [1] and on Axl [2] were less than 100 nM and more than 1000 nM, respectively.

As to `CC(C)(O)c1ccc(-c2n[nH]c3ncc(-c4ccc5c(n4)CCC(N4CCCC4)CC5)cc23)cc1Cl` (stereo not drawn) [Example 60, 2-(2-Chloro-4-{5-[7-(pyrrolidin-1-yl)-5H,6H,7H,8H,9H-cyclohepta[b]pyridin-2-yl]-1H-pyrazolo[3,4-b]pyridin-3-yl}phenyl)propan-2-ol], the IC50 was 100 to 1000 nM on Axl [1] and more than 1000 nM on Axl [2].

As usually defined, the IC50 is the concentration needed to halve the response being measured. A high value points to a need for much substance.
